The values that follow come from paper PMC10510246, “Inhibitory effect of O-propargyllawsone in A549 lung adenocarcinoma cells” (BMC Complementary Medicine and Therapies, 2023).

Counter-ions that a name gives are not always drawn. Like-named read-outs stand apart in the source and are kept apart here. Some results are limits rather than exact numbers.

For one data set, the system named is C6 cells. The data set is described as follows: Giemsa staining, morphological changes, C6. The class given is cell-based. To be noted: 24 h. Here is the method: (§1) A549, B16-F10 and C6 cells were seeded on coverslips in 24-well plates at a density of 2 × 10^4 cells/well. After 24 h, cells were treated with the compound 1 derivative using 1.1, 2.2 and 4.4 μM for A549 and C6, and 0.75, 1.5 and 3 µM for B16-F10 for 24 h. After treatment, cells were washed twice with phosphate-buffered saline (PBS) and fixed with methyl alcohol for 3 min. Then cells were stained with Giemsa for 1 min. The slides were evaluated under an optical microscope (Olympus) and the images were captured at 400 × magnification.

The subject of data set [1] is lung adenocarcinoma (A549) cells. The data set is described as follows: Sulforhodamine B (SRB) cell growth inhibition assay, A549. To be noted: for IC50: A549, SRB, 72 h, value (95% confidence interval), read-out: IC50 (maximum 50% inhibitory concentration of cell growth). The class given is cell-based. How it is done:
(§2) The cell lines of lung adenocarcinoma (A549), melanoma (B16-F10) and glioma (C6) were purchased from the Federal University of Rio de Janeiro. Cells were maintained in cell culture flasks in Dulbeccos's Modified Eagle Medium (DMEM) supplemented with 10% Fetal Bovine Serum (FBS) and 1% antibiotic (10,000 U/mL penicillin; […] streptomycin) and incubated at 37 °C in an atmosphere of 5% CO2. After reaching the necessary confluence for carrying out the experiments, the medium was removed, and the cells detached from the bottle using a 0.25% Trypsin–EDTA solution for a period of 1 to 15 min. After this step, the Trypsin–EDTA solution was inactivated with culture medium and the cells were centrifuged, with rotation of 153 G for 10 min at 4 °C. The pellet formed was resuspended in culture medium and the cells were counted in a Neubauer chamber to carry out the experiments.
(§3) For this experiment, A549, B16-F10 and C6 cells were seeded in 96-well plates at a density of 1 × 10^4 cells/well. After an incubation period of 24 h in a humidified incubator at 37 °C with 5% CO2 atmosphere for adhesion, the cells were treated with lawsone and lawsone derivatives (compounds 1, 2 and 3) for 72 h with concentrations from 25 µM to 0.8 µM. Cells were fixed with 100 μL of 30% trichloroacetic acid for 1 h in a refrigerator at 4 °C. Then, the plate was washed 4 times with water and set to dry. After the drying period, 100 μL of 0.057% Sulforhodamine B (SRB) solution (w/v) dissolved in 1% acetic acid was added for 30 min at room temperature. Then the plate was washed 4 times with 1% acetic acid to remove excess dye. After drying, 200 μL of TRIS 10 mM pH 10.5 was added to dilute the SRB for 30 min. The reading was made in a spectrophotometer (Biotek—H1 Synergy) with a wavelength of 510 nm.
(§4) Based on the inhibitory degree of the derivatives, the IC50 of the compounds were calculated. The IC50 is the concentration capable of inhibiting 50% of cell growth. The compound that presented the lowest IC50 was compound 1, being selected for evaluation in the following experiments. For this, IC50 values were used as a basis to define concentrations of half of the IC50, the IC50 value and twice the IC50.

Data set [2] concerns A549 cells. The data set is described as follows: Giemsa staining, morphological changes, A549. The class given is cell-based. To be noted: A549, 2.2 and 4.4 μM, 24 h. How it is done:
as §1

A further data set has as its system B16-F10 cells. Briefly: Giemsa staining, morphological changes, B16-F10. The class given is cell-based. Particulars: 24 h. How it is done: as §1
Data set [3] deals with A549 cells. The data set is described as follows: Clonogenic assay. In kind it is cell-based. To be noted: Homo sapiens, 72 h treatment, read-out: inhibition of colony formation. How it is done: A549 cells were seeded in a 6-well plate at a density of 150 cells/well and incubated in an incubator with 5% CO2 atmosphere at 37 °C. After 24 h, cells were treated with the compound 1 at concentrations of 1.1, 2.2 and 4.4 µM for 72 h. Dimethyl sulfoxide 0.02% and Doxorubicin 0.2 μM were used as negative control and positive control respectively. The treatment was removed and replaced with a supplemented DMEM medium. The cells were incubated in an atmosphere of 5% CO2 at 37 °C. After 6 days, cells were fixed with methanol + acetic acid (3:1) for 5 min and stained with 0.5% crystal violet in water for 30 min. The plates were photographed, and the images were analyzed using ImageJ 1.46 software.

The next data set concerns melanoma (B16-F10) cells. Briefly: Sulforhodamine B (SRB) cell growth inhibition assay, B16-F10. To be noted: for IC50: B16-F10, SRB, 72 h, value (95% confidence interval), read-out: IC50 (maximum 50% inhibitory concentration of cell growth). In kind it is cell-based. Here is the method: as §2, §3, §4
The test system of data set [4] is A549 cells. Briefly: Annexin V-FITC/PI assay (flow cytometry). In kind it is cell-based. Particulars: 24 h. Here is the method: A549 cells were seeded in 12-well plates in DMEM medium supplemented with FBS and 1% antibiotic (10,000 U/ml penicillin; […] streptomycin) with a density equal to 2 × 10^5 cells/well and incubated for 24 h. Then, the cells were treated with the compound 1 at concentrations of 1.1, 2.2 and 4.4 µM, for 24 h. Dimethyl sulfoxide 0.02% was used as negative control and 0.2 μM Doxorubicin were used as positive control. After treatment, cells were detached with Accutase solution, transferred to tubes, and washed with PBS. After washing the cells were stained with Annexin V-FITC/PI according to the manufacturer. Samples were analyzed by flow cytometry (Attune NxT Acoustic Focusing Cytometer, Thermo Fisher Scientific). Cells without labeling were considered viable, cells positive only for Annexin V/FITC were considered cells in apoptosis, cells with double labeling for Annexin V/FITC and propidium iodide were considered cells in late apoptosis and cells positive only for iodide propidium were considered cells in necrosis.
(Flow cytometry measures light scatter and fluorescence of single cells or particles in a stream.)

The subject of a further data set is human erythrocytes. Briefly: Hemolytic assay. The class given is cell-based. Here is the method:
(§5) The hemolytic activity of the compound 1 was tested using human erythrocytes from healthy volunteers. […] Triton X 100 (0.1%) and Dimethyl sulfoxide (0.1%) were used as positive and negative hemolysis controls, respectively. Erythrocytes were kept under agitation at a temperature of 37 °C for 1 h. After this time, the plate was centrifuged at 405 × g for 5 min and 0.15 mL of the transferred supernatant was read in a spectrophotometer (Biotek—H1 Synergy) with an absorbance of 540 nm.

A further data set can be described thus: Hemolytic assay. The class given is cell-based, human. To be noted: human erythrocytes (2% suspension); human erythrocytes, 110 µM, 1 h; read-out: hemolysis percentage. How it is done:
as §5

In data set [5] the test system is A549 cells. Briefly: Wound-healing assay (cell migration). In kind it is cell-based. Particulars: for wound closure: A549, 4.4 µM. Here is the method:
A549 cells were seeded in a 12-well plate at a density of 4 × 10^5 cells/well and incubated in an incubator with 5% CO2 atmosphere at 37 °C for 24 h. After the incubation period, a straight-line wound was made with the aid of a p200 tip, the supernatant was discarded, and the wells were washed twice with 1 × PBS to remove loose cells. Cells were treated with compound 1 at concentrations of 1.1, 2.2 and 4.4 µM. 0.02% Dimethyl sulfoxide and 0.2 μM Doxorubicin were used as a negative control and positive control, respectively. Images of wound closure were acquired at 0, 24 and 48 h of treatment with an Olympus microscope. The images were analyzed using the ImageJ software version 1.46.

Another data set relates to glioma (C6) cells. Briefly: Sulforhodamine B (SRB) cell growth inhibition assay, C6. In kind it is cell-based. To be noted: for IC50: C6, SRB, 72 h, value (95% confidence interval), read-out: IC50 (maximum 50% inhibitory concentration of cell growth). Here is the method:
as §2, §3, §4

For the molecule `C#CCOC1=CC(=O)c2ccccc2C1=O` [Compound 1, O-propargyllawsone], the “morphological changes (Giemsa)” value is “reduced cytoplasmic volume and the appearance of apoptotic cells” with C6 cells (C6, 1.1 µM); “reduction in cytoplasm and apoptotic cells” in the data set on C6 cells (C6, 2.2 and 4.4 μM); “reduction in cytoplasm and apoptotic cells” in the data set on A549 cells [2]; “reduced cytoplasmic volume and the appearance of apoptotic cells” in the data set on B16-F10 cells (B16-F10, 0.75 µM); “reduction in cytoplasm and apoptotic cells” with B16-F10 cells (B16-F10, 1.5 and 3 µM). Also, the growth inhibition category result is recorded as “high (high inhibition when above 75%)” in data set [1] (A549, 72 h, concentrations from 25 to 6.3 µM); “high (high inhibition when above 75%)” in the data set with melanoma (B16-F10) cells (B16-F10, 72 h, concentrations from 25 to 6.3 µM); “high (high inhibition when above 75%)” in the data set on glioma (C6) cells (C6, 72 h, concentrations from 25 to 6.3 µM). Moreover, the IC50 in data set [1] is 2.2 µM; in [1] (Homo sapiens, A549, 72 h), less than 2.5 µM; with melanoma (B16-F10) cells, 1500 nM; in the data set with melanoma (B16-F10) cells (Mus musculus, B16-F10, 72 h) it was less than 2200 nM; in the data set on glioma (C6) cells, 2.2 µM; with glioma (C6) cells (Rattus norvegicus, C6, 72 h) it was less than 2.2 µM. In data set [1] (compared with lawsone IC50, cell line not specified), the “inhibitory potential relative to lawsone” value is “at least 10 times”. In the data set on A549 cells [3] (A549, 1.1 µM, compared to the negative control), the inhibition at 1.1 µM stood at 31.1%. Further, the inhibition at 2.2 µM with A549 cells [3] (A549, 2.2 µM, compared to the negative control) turned out to be 82.1%. Also, the inhibition at 4.4 µM with A549 cells [3] (A549, 4.4 µM, compared to the negative control) is 98.1%. In the data set on A549 cells [4] (A549, 1.1 µM and 2.2 µM), the “changes in the percentage of living, apoptotic or necrotic cells” value is “not able to induce significant changes”. The cells undergoing apoptosis with A549 cells [4] (A549, 4.4 µM) is 47.8%. In the data set on A549 cells [4] (A549, 4.4 µM), the cells undergoing necrosis was found to be 39.7%. In addition, in the data set on A549 cells [4] (A549, 4.4 µM), the “percentage of living cells” value came out at 12.4%. In addition, in the data set with human erythrocytes (highest concentration tested of 110 µM), the toxicity to erythrocytes result is “not toxic to erythrocytes”. Further, the hemolytic effect result with human erythrocytes (human erythrocytes, 13.75, 27.5 and 55 µM, 1 h) is listed as “no hemolytic effect”. Moreover, the hemolysis at 1 h, 110 µM in “Hemolytic assay” was less than 0.5%. Also, the “effect on cell migration” value in the data set with A549 cells [5] (A549, 1.1 µM, 24 or 48 h) is “no significant reduction of migration”. For the same molecule, the “reduction of wound closure” value in the data set on A549 cells [5] (A549, 2.2 µM, 48 h) was determined as 33%. The wound closure in the data set on A549 cells [5] (24 h) was found to be 18%; in the data set with A549 cells [5] (48 h), 56%.
Take `O=C1C=C(OCc2cn(-c3ccccc3)nn2)C(=O)c2ccccc21` [Compound 2]: the growth inhibition category result in data set [1] (A549, 72 h, concentrations 12.5 to 0.8 µM) is given as “low (low when below 50%)”; with melanoma (B16-F10) cells (B16-F10, 72 h, concentrations 12.5 to 0.8 µM), “low (low when below 50%)”; in the data set on glioma (C6) cells (C6, 72 h, concentrations 12.5 to 0.8 µM), “low (low when below 50%)”. Besides, the IC50 in data set [1] was 14.9 µM; in [1] (Homo sapiens, A549, 72 h) it was greater than 14 µM; in the data set on melanoma (B16-F10) cells, 14200 nM; in the data set with melanoma (B16-F10) cells (Mus musculus, B16-F10, 72 h) it was greater than 14000 nM; in the data set with glioma (C6) cells (listed as compound 2), greater than 14 µM; with glioma (C6) cells, 43.4 µM. Moreover, the inhibition at 25 µM in data set [1] (Homo sapiens, A549, 72 h, 25 µM, read-out: growth inhibition category) was 50 to 75%; with melanoma (B16-F10) cells (Mus musculus, B16-F10, 72 h, 25 µM, read-out: growth inhibition category) it was 50 to 75%.
With `O=C1C=C(OCc2cn(-c3ccc(Cl)cc3)nn2)C(=O)c2ccccc21` [Compound 3], the growth inhibition category entry in data set [1] (A549, 72 h, all concentrations tested (25 µM to 0.8 µM)) was “low (low when below 50%)”; in the data set on melanoma (B16-F10) cells (B16-F10, 72 h, all concentrations tested (25 µM to 0.8 µM)), “low (low when below 50%)”; in the data set with glioma (C6) cells (C6, 72 h, all concentrations tested (25 µM to 0.8 µM)), “low (low when below 50%)”.
With `COc1cccc2c1C(=O)c1c(O)c3c(c(O)c1C2=O)C[C@@](O)(C(=O)CO)C[C@@H]3O[C@H]1C[C@H](N)[C@H](O)[C@H](C)O1` [Doxorubicin, Doxorubicin Hydrochloride, reference compound], the IC50 in data set [1] is less than 0.6 µM; with melanoma (B16-F10) cells (listed as Doxorrubicin), 600 nM; in the data set with melanoma (B16-F10) cells (Mus musculus, B16-F10, 72 h), less than 600 nM. In the data set on A549 cells [3] (A549, 0.2 μM (positive control)), the inhibition at 0.2 µM was found to be 96.1%. The “changes in the percentage of living, apoptotic or necrotic cells” value in the data set on A549 cells [4] (A549, 0.2 µM) is on record as “not possible to observe changes”. In the data set with A549 cells [5] (A549, 0.2 μM (positive control), 48 h), the “wound closure (wound restored)” value is on record as 78%.
Regarding `O=C1C=C(O)C(=O)c2ccccc21` [Lawsone, 2-hydroxy-1,4-naphtoquinone], the IC50 in data set [1] (Homo sapiens, A549, 72 h) came to 53 µM; in the data set with glioma (C6) cells (Rattus norvegicus, C6, 72 h), 22.6 µM.

As usually defined, the inhibition is the share of the control response that was lost under treatment.
